Where two headings read alike, the source gives them in different places.
What was measured:
α3β4 nAChR = molecular target: T1, α3β4 nAChR (Rattus norvegicus, UniProt P04757+P12392); assay: [3H]-epibatidine radioligand competition binding assay
T1 construct: expressed in transfected cells; host or cells: HEK 293 (KXα3β4R2)
Protocol: (§1) Stably transfected cell lines, tissue culture conditions, membrane preparation procedures and binding assays were described previously. Briefly, cultured cells at >80% confluence were removed from their flasks (80 cm^2) with a disposable cell scraper and placed in 10 mL of 50 mM Tris.HCl buffer (pH 7.4, 4° C.). The cell suspension was centrifuged at 10,000×g for 5 min and the pellet was collected. The cell pellet was then homogenized in 10 mL buffer with a polytron homogenizer and centrifuged at 36,000 g for 10 min at 4° C. The membrane pellet was resuspended in fresh buffer, and aliquots of the membrane preparation were used for binding assays. The concentration of [^3H]-epibatidine used was ˜500 pM for competition binding assays. […] Bound and free ligands were separated by vacuum filtration through Whatman GF/C filters treated with 0.5% polyethylenimine. The filter-retained radioactivity was measured by liquid scintillation counting. Specific binding was defined as the difference between total binding and nonspecific binding. Data from competition binding assays were analyzed using Prism 5 (GraphPad Software, San Diego, Calif.).
(§2) The in vitro binding affinities of the new ligands were measured for defined receptor subtypes (α2β2, α2β4, α3β2, α3β4, α4β2, α4β4, α6β2, α6β4, and α7) expressed in stably transfected cell lines. [^3H]Epibatidine ([^3H]EB) binds to the agonist recognition site of all of the defined receptor subtypes with high affinities. Rat forebrain homogenates were included to allow comparison between the heterologous and native α4β2 and α7 nAChRs. See FIG. 18 for binding affinity values (Ki) of the ligands at the three major nAChR subtypes (α3β4, […], and α7).
(§3) The binding affinities of all compounds synthesized for the receptor subtypes were examined in binding competition studies against [^3H]-epibatidine.

α4β2 nAChR = molecular target: T2, α4β2 nAChR (Rattus norvegicus, UniProt P09483+P12390); assay: as above
T2 construct: expressed in transfected cells
Protocol: as §1, §2, §3

α7 nAChR = molecular target: T3, α7 nAChR (Rattus norvegicus, UniProt Q05941); assay: as above; conditions: competition against [3H]-epibatidine
T3 construct: expressed in transfected cells
Protocol: as §1, §2, §3

human α4β2 nAChRs = molecular target: T4, human α4β2 nAChRs (Homo sapiens, UniProt P17787+P43681); assay: 86Rb+ efflux assay in stably transfected cells; assay type: cell-based; conditions: for IC50: 10 min pre-treatment before 100 μM (−)-nicotine, read-out: IC50(10′) α4β2 (desensitization potency)
T4 construct: expressed in transfected cells
Protocol: (§4) The cell line expressing rat α3β4 nAChRs, KXα3β4R2, was established previously by stably transfecting HEK 293 cells with combinations of rat nAChR α3 and β4 subunit genes. The cell line expressing human α4β2 nAChRs, YXα4β2H1, were established recently (Tuan et al., 2012, manuscript in preparation). These cell lines were maintained in minimum essential medium (MEM) supplemented with 10% fetal bovine serum, 100 units/mL penicillin G, […] streptomycin and selective antibiotics at 37° C. with 5% CO2 in a humidified incubator. Tissue culture medium and antibiotics were obtained from Invitrogen Corporation (Carlsbad, Calif.), unless otherwise stated. Fetal bovine serum and horse serum were provided by Gemini Bio-Products (Woodland, Calif.).
(§5) Functional properties of compounds at nAChRs expressed in the transfected cells were measured using ^86Rb^+ efflux assays as described previously. In brief, cells were plated into 24-well plates coated with poly-D-lysine. The plated cells were grown at 37° C. for 18 to 24 hour to reach 85-95% confluence. The cells were then incubated in growth medium (0.5 mL/well) containing ^86Rb^+ (2 μCi/mL) for 4 hour at 37° C. The loading mixture was then aspirated, and the cells were washed four times with 1 mL buffer (15 mM HEPES, 140 mM NaCl, 2 mM KCl, 1 mM MgSO4, 1.8 mM CaCl2, 11 mM Glucose, pH 7.4). One mL of buffer with or without compounds to be tested was then added to each well. After incubation for 2 min, the assay buffer was collected for measurements of ^86Rb^+ released from the cells. Cells were then lysed by adding 1 mL of 100 mM NaOH to each well, and the lysate was collected for determination of the amount of ^86Rb^+ that was in the cells at the end of the efflux assay. Radioactivity of assay samples and lysates was measured by liquid scintillation counting. Total loading (cpm) was calculated as the sum of the assay sample and the lysate of each well. The amount of ^86Rb^+ efflux was expressed as a percentage of ^86Rb^+ loaded. […] For obtaining EC50 and Emax values, stimulation curves were constructed in which 8 different concentrations of a ligand were included in the assay. […] EC50, Emax and IC50(10′) values were determined by nonlinear least-squares regression analyses (GraphPad, San Diego, Calif.).
(§6) Functional properties of the new ligands were determined by ^86Rb^1 efflux assays in cells expressing α3β4 and α4β2 nAChR subtypes. Functional activity of each new ligand was measured in terms of its agonism, antagonism and desensitization ability.
(§7) Agonist activity of each of the ligands was tested at eight concentrations. […] The full concentration-effect curves generated potency (EC50) and efficacy (Emax) of each ligand.
(§8) Though the ^86Rb^+ efflux assays were the main methodology used to determine functional properties, whole-cell current measurements were also used to verify the key experiments.

rat α3β4 nAChRs = molecular target: T5, rat α3β4 nAChRs (Rattus norvegicus, UniProt P04757+P12392); assay: 86Rb+ efflux assay in stably transfected cells; assay type: cell-based; conditions: for agonist activity at α3β4 nAChRs: 86Rb+ efflux, rat α3β4; for IC50: 10 min pre-treatment before 100 μM (−)-nicotine, read-out: IC50(10′) α3β4 (desensitization potency)
T5 construct: expressed in transfected cells; host or cells: HEK 293 (KXα3β4R2)
Protocol: as §4, §5, §6, §7, §8

[1] = test system: nicotine self-administration; conditions: subcutaneous, previous studies; cited from earlier work
[2] = human, in vivo; cited from earlier work
[3] = competition against [3H]-epibatidine, stably transfected cell membranes, read-out: Ki α3β4
[4] = competition against [3H]-epibatidine, stably transfected cell membranes, read-out: Ki α4β2
[5] = preincubated with the cells for 10 min

`Fc1cc(F)cc(C#Cc2cncc(OC[C@@H]3CCN3)c2)c1` [VMY-2-113, (S)-3-(azetidin-2-ylmethoxy)-5-((3,5-difluorophenyl)ethynyl)pyridine] gave a Ki (α3β4 nAChR) of 1.4 µM, a Ki (α4β2 nAChR) of 0.05 nM and a Ki (α7 nAChR) of 1.8 µM.

For `OCCCCC#Cc1cncc(OC[C@@H]2CCN2)c1` [Sazetidine-A, reference compound], the Ki (α3β4 nAChR; [3]) was 1.9 µM, the Ki (α4β2 nAChR; [4]) was 0.062 nM and the Ki (α7 nAChR) was 1.6 µM. The IC50 (human α4β2 nAChRs; listed as Saz-A) was 0.012 µM, the IC50 (human α4β2 nAChRs) was 0.0075 µM and the “inhibition of nicotine activation of α4β2 receptors” value (“inhibition” for short) (human α4β2 nAChRs; [5]) was “inhibited”. For the same molecule, the “agonist activity at α3β4 nAChRs” value (rat α3β4 nAChRs) was “does not show agonist activity”, the IC50 (rat α3β4 nAChRs) was greater than 10 µM and the “effect on the function of rat α3β4 nAChRs” value (rat α3β4 nAChRs; concentrations up to 10 μM) was “had no effect”. For the same molecule, the “lowest effective dose reducing nicotine self-administration” value [1] was 3 mg/kg.

`CCCNCCOc1cncc(C#Cc2ccccc2)c1` [VMY-2-177, N-(2-(5-(phenylethynyl)pyridin-3-yloxy)ethyl)propan-1-amine] gave a Ki (α3β4 nAChR; [3]) of 850 µM, a Ki (α4β2 nAChR; [4]) of 1100 nM and a Ki (α7 nAChR) of 48 µM. For the same molecule, the IC50 (human α4β2 nAChRs) was 15 µM and the IC50 (rat α3β4 nAChRs) was 12 µM.

Work on `Fc1ccc(C#Cc2cncc(OC[C@@H]3CCN3)c2)cc1` [VMY-2-101, (S)-3-(azetidin-2-ylmethoxy)-5-((4-fluorophenyl)ethynyl)pyridine] yielded a Ki (α3β4 nAChR; [3]) of 0.65 µM, a Ki (α4β2 nAChR) of 0.083 nM and a Ki (α7 nAChR) of 2 µM. For the same molecule, the IC50 (human α4β2 nAChRs) was 0.008 µM.

For `CN1CC[C@H]1COc1cncc(C#Cc2ccccc2)c1` [VMY-2-205, (S)-3-((1-methylazetidin-2-yl)methoxy)-5-(phenylethynyl)pyridine], the Ki (α3β4 nAChR; [3]) was 40 µM, the Ki (α4β2 nAChR) was 1.2 nM and the “binding weaker than VMY-2-95 (fold)” value (α4β2 nAChR; α4β2 binding affinity relative to (S)-N-H VMY-2-95) was roughly 25 times. It also gave a Ki (α7 nAChR) of 7.7 µM, an IC50 (human α4β2 nAChRs) of 0.37 µM and an IC50 (rat α3β4 nAChRs) of 22 µM.

For `Fc1cccc(C#Cc2cncc(OC[C@@H]3CCN3)c2)c1` [VMY-2-109, (S)-3-(azetidin-2-ylmethoxy)-5-((3-fluorophenyl)ethynyl)pyridine], the Ki (α3β4 nAChR; [3]) was 0.52 µM, the Ki (α4β2 nAChR) was 0.032 nM and the Ki (α7 nAChR) was 0.72 µM. For the same molecule, the IC50 (human α4β2 nAChRs) was 0.013 µM.

In the case of `COc1cc(F)cc(C#Cc2cncc(OC[C@@H]3CCN3)c2)c1` [VMY-2-139, (S)-3-(azetidin-2-ylmethoxy)-5-((3-fluoro-5-methoxyphenyl)ethynyl)pyridine], the Ki (α3β4 nAChR; [3]) is reported as 1.3 µM, the Ki (α4β2 nAChR) is reported as 0.076 nM and the Ki (α7 nAChR) is reported as 1.5 µM.

`Cc1cc(F)cc(C#Cc2cncc(OC[C@@H]3CCN3)c2)c1` [VMY-2-135, (S)-3-(azetidin-2-ylmethoxy)-5-((3-fluoro-5-methylphenyl)ethynyl)pyridine] showed a Ki (α3β4 nAChR; [3]) of 1.1 µM, a Ki (α4β2 nAChR) of 0.043 nM and a Ki (α7 nAChR) of 0.59 µM.

With `c1cnc2cc3c(cc2n1)[C@@H]1CNC[C@H]3C1` [varenicline, reference compound] the “agonist activity at α4β2 receptors” value (human α4β2 nAChRs; 86Rb+ efflux, human α4β2) was “partial agonist activity”, the “inhibition” value (human α4β2 nAChRs; [5]) was “inhibited” and the “agonist activity at α3β4 nAChRs” value (rat α3β4 nAChRs) was “near-full agonist activity”. For the same molecule, the “participants in clinical trials who reported nausea” value [2] was roughly 30%, the “participants in clinical trials who reported vomiting” value [2] was 18% and the “percentage of subjects who remained smoke-free for 12 months following treatment” value [2] was roughly 22%.

With `Cc1cccc(C#Cc2cncc(OC[C@@H]3CCN3)c2)c1` [VMY-2-123, (S)-3-(azetidin-2-ylmethoxy)-5-(m-tolylethynyl)pyridine] the Ki (α3β4 nAChR; [3]) was 4 µM, the Ki (α4β2 nAChR) was 0.046 nM and the “selectivity for α4β2 receptors over α3β4 receptors (Ki ratio)” value (α4β2 nAChR) was 87,000 times. The Ki (α7 nAChR) was 0.2 µM.

Work on `CN(C)c1cc(F)cc(C#Cc2cncc(OC[C@@H]3CCN3)c2)c1` [VMY-2-131, (S)-3-((5-(azetidin-2-ylmethoxy)pyridin-3-yl)ethynyl)-5-fluoro-N,N-dimethylaniline] yielded a Ki (α3β4 nAChR; [3]) of 1 µM, a Ki (α4β2 nAChR) of 0.031 nM and a Ki (α7 nAChR) of 0.25 µM.

With `FC(F)(F)c1cccc(C#Cc2cncc(OC[C@@H]3CCN3)c2)c1` [VMY-2-117, (S)-3-(azetidin-2-ylmethoxy)-5-((3-(trifluoromethyl)phenyl)ethynyl)pyridine] the Ki (α3β4 nAChR; [3]) was 1.4 µM, the Ki (α4β2 nAChR) was 0.26 nM and the “selectivity for α4β2 receptors over α3β4 receptors (Ki ratio)” value (α4β2 nAChR) was 5,400 times. The Ki (α7 nAChR) was 1.3 µM.

With `CN1CCCC1c1cccnc1` (centres unmarked) [nicotine, reference compound] the “inhibition” value (human α4β2 nAChRs) was “inhibited”.

Molecule `Clc1cccc(C#Cc2cncc(OC[C@@H]3CCN3)c2)c1` [VMY-2-127, (S)-3-(azetidin-2-ylmethoxy)-5-((3-chlorophenyl)ethynyl)pyridine] has a Ki (α3β4 nAChR; [3]) of 3.4 µM, a Ki (α4β2 nAChR) of 0.093 nM and a Ki (α7 nAChR) of 0.48 µM.

With `Fc1ccccc1C#Cc1cncc(OC[C@@H]2CCN2)c1` [VMY-2-105, (S)-3-(azetidin-2-ylmethoxy)-5-((2-fluorophenyl)ethynyl)pyridine] the Ki (α3β4 nAChR; [3]) was 0.58 µM, the Ki (α4β2 nAChR) was 0.072 nM and the Ki (α7 nAChR) was 1.1 µM. For the same molecule, the IC50 (human α4β2 nAChRs) was 0.02 µM.

`C(#Cc1cncc(OCC2CCC2)c1)c1ccccc1` [VMY-2-161, 3-(cyclobutylmethoxy)-5-(phenylethynyl)pyridine] gave a Ki (α3β4 nAChR; [3]) of 1300 µM, a Ki (α4β2 nAChR; [4]) of 160000 nM and a Ki (α7 nAChR) of 410 µM. The IC50 (human α4β2 nAChRs) was 35 µM and the IC50 (rat α3β4 nAChRs) was greater than 100 µM.

Molecule `C(#Cc1cncc(OC[C@H]2CCN2)c1)c1ccccc1` [VMY-2-191, (R)-3-(azetidin-2-ylmethoxy)-5-(phenylethynyl)pyridine] has a Ki (α3β4 nAChR; [3]) of 1.7 µM, a Ki (α4β2 nAChR; [4]) of 0.11 nM and a Ki (α7 nAChR) of 1.6 µM.

From US9994548B2, “Phenyl-substituted nicotinic ligands, and methods of use thereof” (Georgetown University, priority 2011, dated 2018)
